Patent US10765638B2, “Particle formulation with polycation complex” (Yale University, priority 2017, dated 2020)

Assays:
LC-1F = conditions: read-out: IC50 for erlotinib (printed in the Afatinib column, marked &), cancerrxgene.org; cited from earlier work
H1975-OR xenografts = test: NSCLC xenograft tumor growth; assay type: in vivo, athymic Swiss nu/nu mice; conditions: 5 mg/kg osimertinib oral daily; 5 mg/kg NGI-1-NP as printed in b391 (20 mg/kg elsewhere in the source); blank NPs 926±253 mm3
Experimental: The effects of NGI-1 were evaluated in Six-to-eight-week old female athymic Swiss nu/nu mice bearing bilateral flank xenograft tumors. Five days after inoculation, mice were randomized to receive i.v. NGI-1 NPs (20 mg/kg) or blank NPs three times per week for a total of 8 doses. […] Tumor size was measured three times per week and volume was calculated according to the formula π/6×(length)×(width)^2.

H1975 and H1975-OR cells = test: MTT proliferation assay; assay type: cell-based; conditions: 1 μM Osimertinib
Experimental: The H1975 and A549 cell lines were purchased from ATCC (Manassas, Va.), the PC9 cell line was a gift from Katie Politi, and the HCC-827 and HCC-827-GR lines were gifts from Jeff Engelman (MGH, Boston Mass.). Cell lines were cultured in RPMI 1640+10% FBS supplemented with penicillin and streptomycin (Gibco, Life Technologies, Grand Island, N.Y., US) in a humidified incubator with 5% CO2, and they were kept in culture no more than 4 months after resuscitation from the original stocks. No additional authentication was performed. Mycoplasma cell culture contamination was routinely checked and ruled out using the MycoAlert Mycoplasma Detection Kit (Lonza, Rockland, Me. USA). To generate a TKI resistant cell lines, either PC9 or H1975 cells were exposed to increasing concentrations of gefitinib or osimertinib, respectively. Gefitinib or Osimertinib concentrations were increased stepwise when cells resumed growth kinetics similar to the untreated parental cells over a dose range from 10 to 500 nM. Resistant cell cultures were obtained ˜8-12 weeks after initiation of drug exposure. To confirm the emergence of a therapeutic resistant, MTT assays were performed after allowing the cells to grow in drug-free conditions for at least 4 days.
Growth rates were determined by CellTiter 96 NonRadioactive Cell Proliferation Assay (Promega; Madison, Wis., USA) according to the manufacturer's directions. Briefly, NSCLC cells (2×103) untreated or treated with 10 μM NGI-1, 100 nM Gefitinib, or 1 μM Osimertinib (Selleck Chemicals), were seeded in triplicate in 96-wells plates and grown in culture medium containing 10% serum. The media was changed with or without new inhibitor every 48 h. Cell numbers were estimated after 0, 3, and 5 days by adding MTT (3-(4,5-dimethylthiazol-2-yl)-2,5-diphenyltetrazolium bromide) reagent to the wells 4 h before taking the spectrophotometric reading (absorbance at 570 nm).

D54-ERLucT xenografts = test: Bioluminescent imaging of inhibition of N-linked glycosylation in xenografts; assay type: in vivo, mice; conditions: 24 hours; tunicamycin 1 mg/kg, positive control
Experimental: All experimental procedures were approved in accordance with IACUC and Yale University institutional guidelines for animal care and ethics and guidelines for the welfare and use of animals in cancer research (Workman et al., Br J Cancer, 102:1555-77 (2010)). NGI-1 delivery to glioma xenografts was evaluated using a bioluminescent imaging platform that detects inhibition of NLG (Contessa at al., Clin Cancer Res., 16:3205-14 (2010)). Ten days after subcutaneous injection of 1×10^7 gliomas cells, mice bearing palpable tumors were treated with control or NGI-1 NPs (20 mg/kg), or tunicamycin 1 mg/kg and imaged 5-30 minutes after delivery of i.p. luciferin (150 mg/kg). Signal intensity was quantified for a region of interest (ROI) encompassing each tumor and induction of bioluminscence was calculated by comparing peak bioluminescent activity from pre- and post-treatment imaging at 24 and 48 hours.

[1] = Contessa et al., Clin Cancer Res. 2010; cited from earlier work

In the case of `C#Cc1cccc(Nc2ncnc3cc(OCCOC)c(OCCOC)cc23)c1` [erlotinib], the IC50 (LC-1F) is given as 390 nM.
In the case of `C=CC(=O)Nc1cc(Nc2nccc(-c3cn(C)c4ccccc34)n2)c(OC)cc1N(C)CCN(C)C` [osimertinib], the “mean tumor volume at day 78” value (H1975-OR xenografts) is reported as 584±296 mm^3, the “sensitivity of proliferation to osimertinib” value (H1975 and H1975-OR cells; H1975-OR cells) is reported as “resistant” and the “sensitivity of proliferation to osimertinib” value (H1975 and H1975-OR cells; H1975 cells) is reported as “sensitive”.
In the case of tunicamycin, the induction of bioluminescence (D54-ERLucT xenografts) is given as 4.2 fold and the toxicity [1] is given as “significant toxicity both in vitro and in vivo”.
